# Results: US12209081B2 (Katholieke Universiteit Leuven, priority 2020, dated 2025)
# Molecular target: mouse TRPM3α2 (mTRPM3) ion channel (Mus musculus (Mouse), UniProt J9SQF3)
# Experiment: TRPM3 ion channel driven Ca2+ uptake, Fluo-4 AM assay, mTRPM3alpha2 overexpressing flip-in HEK293 cells stimulated with pregnenolone sulfate
# Format: cell-based
# Conditions: PS 50 μM, cpds 200-299
# Description: Part B Monitoring the TRPM3 Ion Channel Driven Ca^2+ Uptake.
# In order to monitor the inhibition of the mouse TRPM3α2 (mTRPM3) ion channel by the compounds of the invention, a cellular system making use of an mTRPM3alpha2 or hTRPM3 overexpressing cell line (flip-in HEK293) was used. The TRPM3 channel was stimulated/opened with Pregnenolone sulfate (PS) (50 μM) which results in Ca^2+ influx.
# For mTRPM3, the intracellular Ca^2+ was measured with a Calcium responsive dye. Fluor-4 AM ester (Invitrogen). Cells were cultured until a confluence of 80-90%, washed with Versene (Invitrogen) and detached from the surface by a short incubation with 0.05% Trypsin (Invitrogen). The trypsination process was stopped by the addition of complete cell culture medium (DMEM, glutamax, 10% FCS,NEAA,Pen-Strep). Cells were collected and resuspended in Krebs buffer without Calcium at RT.
# Prior the cell seeding (±2000 cells/well into a black, 384 well plate (Greiner)) the diluted compound was added in the assay plate, together with the PS dissolved in Krebs buffer containing Calcium. […] Directly after cell addition the plates were read on an Envision fluorescence reader (Perkin Elmer) by an Excitation of 485 nm and emission at 535 nm.
# Channel inhibition was calculated compared to a non-PS stimulated control versus a condition stimulated with PS (50 μM) with vehicle. The ability of the compounds of the invention to inhibit this activity was determined as: Percentage inhibition=[1-((RFU determined for sample with test compound present—RFU determined for sample with positive control inhibitor) divided by (RFU determined in the presence of vehicle—RFU determined for sample with positive control inhibitor))]*100.
# Chain of mouse TRPM3α2 (mTRPM3) ion channel (J9SQF3 other isoform, or with tags, fused parts or gaps): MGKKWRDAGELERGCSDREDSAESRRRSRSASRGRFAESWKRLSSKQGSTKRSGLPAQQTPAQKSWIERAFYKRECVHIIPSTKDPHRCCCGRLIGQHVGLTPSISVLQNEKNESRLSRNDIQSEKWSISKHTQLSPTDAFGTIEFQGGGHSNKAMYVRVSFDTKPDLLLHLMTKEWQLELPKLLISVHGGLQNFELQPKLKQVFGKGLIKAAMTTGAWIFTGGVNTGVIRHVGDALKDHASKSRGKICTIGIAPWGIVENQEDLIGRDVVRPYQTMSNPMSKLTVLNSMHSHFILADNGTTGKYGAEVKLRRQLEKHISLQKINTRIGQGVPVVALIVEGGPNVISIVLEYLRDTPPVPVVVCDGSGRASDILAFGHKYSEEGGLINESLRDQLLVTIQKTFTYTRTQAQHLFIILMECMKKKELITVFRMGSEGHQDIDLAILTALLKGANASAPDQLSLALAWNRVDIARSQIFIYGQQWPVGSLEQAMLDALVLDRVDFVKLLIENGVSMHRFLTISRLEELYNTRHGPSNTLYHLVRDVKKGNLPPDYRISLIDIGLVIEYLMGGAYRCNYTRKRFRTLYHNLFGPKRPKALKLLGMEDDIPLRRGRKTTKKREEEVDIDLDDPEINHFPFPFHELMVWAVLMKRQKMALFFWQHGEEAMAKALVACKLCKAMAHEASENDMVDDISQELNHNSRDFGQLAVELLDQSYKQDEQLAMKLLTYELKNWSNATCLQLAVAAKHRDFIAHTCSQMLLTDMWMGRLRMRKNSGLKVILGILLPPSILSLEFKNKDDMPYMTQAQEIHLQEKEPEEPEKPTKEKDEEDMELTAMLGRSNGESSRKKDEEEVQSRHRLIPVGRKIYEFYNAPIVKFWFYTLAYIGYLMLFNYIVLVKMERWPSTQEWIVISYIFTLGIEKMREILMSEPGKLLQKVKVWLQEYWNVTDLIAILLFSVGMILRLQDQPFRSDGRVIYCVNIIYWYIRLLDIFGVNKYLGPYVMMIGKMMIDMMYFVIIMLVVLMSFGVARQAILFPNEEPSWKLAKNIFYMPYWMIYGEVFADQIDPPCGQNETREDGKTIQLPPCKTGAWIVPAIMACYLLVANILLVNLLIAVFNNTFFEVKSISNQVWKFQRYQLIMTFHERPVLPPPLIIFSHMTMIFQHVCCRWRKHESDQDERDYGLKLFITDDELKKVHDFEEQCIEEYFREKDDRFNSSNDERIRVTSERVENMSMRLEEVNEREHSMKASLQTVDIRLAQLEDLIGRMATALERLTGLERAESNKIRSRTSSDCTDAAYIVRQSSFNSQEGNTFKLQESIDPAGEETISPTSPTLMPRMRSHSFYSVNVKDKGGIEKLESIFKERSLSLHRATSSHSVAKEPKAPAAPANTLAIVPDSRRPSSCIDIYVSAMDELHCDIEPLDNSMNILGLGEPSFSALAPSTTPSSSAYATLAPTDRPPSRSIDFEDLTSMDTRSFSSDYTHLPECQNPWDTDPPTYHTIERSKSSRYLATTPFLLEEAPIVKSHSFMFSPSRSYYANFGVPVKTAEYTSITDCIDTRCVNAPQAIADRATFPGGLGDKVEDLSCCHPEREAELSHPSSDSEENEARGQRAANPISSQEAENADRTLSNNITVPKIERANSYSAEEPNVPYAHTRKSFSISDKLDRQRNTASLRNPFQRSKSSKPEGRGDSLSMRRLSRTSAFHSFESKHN
row,Structure (SMILES),IC50
1,"Cc1oc2ccc(OCc3nccn3C)cc2c1C(=O)NC1CCNCC1(F)F (single isomer, unassigned) [cpd 205-En 1]",1 to 20 µM
2,"Cc1oc2ccc(OCc3nccn3C)cc2c1C(=O)NC1CCNCC1(F)F (single isomer, unassigned) [cpd 205-En 2]",< 1 µM
3,"CCOc1ncccc1COc1ccc2oc(C)c(C(=O)NC3CCNCC3(F)F)c2c1 (single isomer, unassigned) [cpd 207-En 1]",< 1 µM
4,"Cc1ncsc1COc1ccc2oc(C)c(C(=O)NC(CO)C(=O)O)c2c1 (single isomer, unassigned) [cpd 270-En 1]",> 20 µM

# Same assay, conditions: PS 50 μM, cpds 300-399
row,Structure (SMILES),IC50
1,"Cc1ncsc1COc1ccc2oc(C(F)F)c(C(=O)NC3CCNCC3(F)F)c2c1 (single isomer, unassigned) [cpd 310-En 1]",< 1 µM
2,"Cc1ncsc1COc1ccc2oc(C(F)F)c(C(=O)NC3CCNCC3(F)F)c2c1 (single isomer, unassigned) [cpd 310-En 2]",< 1 µM
3,"O=C(NC1CCNCC1(F)F)c1c(C2CC2)oc2ccc(OCc3cccnc3C(F)(F)F)cc12 (single isomer, unassigned) [cpd 313-En 1]",< 1 µM
4,"O=C(NC1CCNCC1(F)F)c1c(C2CC2)oc2ccc(OCc3cccnc3C(F)(F)F)cc12 (single isomer, unassigned) [cpd 313-En 2]",1 to 20 µM
5,"Cc1ncsc1COc1ccc2oc(C)c(C(=O)NC(C)c3ncco3)c2c1 (single isomer, unassigned) [cpd 315-En 1]",< 1 µM
6,"Cc1ncsc1COc1ccc2oc(C)c(C(=O)NC(CO)C(F)(F)F)c2c1 (single isomer, unassigned) [cpd 316-En 1]",< 1 µM
7,"Cc1ncsc1COc1ccc2oc(C)c(C(=O)NC3COCCNC3=O)c2c1 (single isomer, unassigned) [cpd 317-En 1]",< 1 µM
8,"Cc1oc2ccc(OCc3cccnc3N3CCC3)cc2c1C(=O)NC1CCNCC1(F)F (single isomer, unassigned) [cpd 336-En 1]",< 1 µM
9,"Cc1oc2ccc(OCc3cccnc3OC(F)F)cc2c1C(=O)NC1CCNCC1(F)F (single isomer, unassigned) [cpd 338-En 1]",< 1 µM
10,"Cc1oc2ccc(OCc3cccnc3OC(F)F)cc2c1C(=O)NC1CCNCC1(F)F (single isomer, unassigned) [cpd 338-En 2]",< 1 µM
11,"Cc1oc2ccc(OCc3cccnc3C(F)F)cc2c1C(=O)NC1CCNCC1(F)F (single isomer, unassigned) [cpd 342-En 1]",< 1 µM

# Same assay, conditions: PS (50 μM) stimulated, cpd 001-199
row,Structure (SMILES),IC50
1,"Cc1ncsc1COc1ccc2oc(C)c(C(=O)NC3CNCCC3(F)F)c2c1 (single isomer, unassigned) [cpd 103-En 1]",< 1 µM
2,"Cc1oc2ccc(OCc3cccnc3C(F)(F)F)cc2c1C(=O)NC1CNCC1(F)F (single isomer, unassigned) [cpd 105-En 1, N-(4,4-difluoropyrrolidin-3-yl)-2-methyl-5-((2-(trifluoromethyl)pyridin-3-yl)methoxy)benzofuran-3-carboxamide]",< 1 µM
3,"Cc1ncsc1COc1ccc2oc(C)c(C(=O)NC3CNCC3(F)F)c2c1 (single isomer, unassigned) [cpd 106-En 1]",< 1 µM
4,"Cc1oc2ccc(OCc3cccnc3C(F)(F)F)cc2c1C(=O)NC1CNCCC1(F)F (single isomer, unassigned) [cpd 111-En 1]",< 1 µM
5,"Cc1oc2ccc(OCc3cccnc3C(F)(F)F)c(F)c2c1C(=O)NC1CCNCC1(F)F (single isomer, unassigned) [cpd 112-En 1, N-(3,3-difluoropiperidin-4-yl)-4-fluoro-2-methyl-5-((2-(trifluoromethyl)pyridin-3-yl)methoxy) -benzofuran-3-carboxamide]",< 1 µM
6,"Cc1ncsc1COc1ccc2oc(C)c(C(=O)NC3CNCC(F)(F)C3)c2c1 (single isomer, unassigned) [cpd 115-En 1]",< 1 µM
7,"Cc1oc2ccc(OCc3cccnc3C(F)(F)F)cc2c1C(=O)NC1CNCC(F)(F)C1 (single isomer, unassigned) [cpd 125-En 1]",< 1 µM
8,"Cc1ncsc1COc1ccc2oc(C)c(C(=O)NC3(CO)CCOC3)c2c1 (single isomer, unassigned) [cpd 132-En 1]",< 1 µM
9,"Cc1oc2ccc(OCc3cccnc3C(F)(F)F)cc2c1C(=O)NC1(CO)CCOC1 (single isomer, unassigned) [cpd 135-En 1]",< 1 µM
10,"Cc1oc2ccc(OCc3cccnc3C(F)(F)F)cc2c1C(=O)NC1CCOC1 (single isomer, unassigned) [cpd 148-En 1]",< 1 µM
11,"Cc1ncsc1COc1ccc2oc(C)c(C(=O)NC3CCOC3)c2c1 (single isomer, unassigned) [cpd 159-En 1]",< 1 µM
12,"Cc1oc2c(F)cc(OCc3cccnc3C(F)(F)F)cc2c1C(=O)NC1CCNCC1(F)F (single isomer, unassigned) [cpd 176-En 1, N-(3,3-difluoropiperidin-4-yl)-7-fluoro-2-methyl-5-((2-(trifluoro-methyl)pyridin-3-yl)methoxy)benzofuran-3-carboxamide]",1 to 20 µM
13,"Cc1oc2c(F)cc(OCc3cccnc3C(F)(F)F)cc2c1C(=O)NC1CCNCC1(F)F (single isomer, unassigned) [cpd 176-En 2, N-(3,3-difluoropiperidin-4-yl)-7-fluoro-2-methyl-5-((2-(trifluoro-methyl)pyridin-3-yl)methoxy)benzofuran-3-carboxamide]",< 1 µM

# Same assay, conditions: PS (50 μM) stimulated, cpds. 400-499
row,Structure (SMILES),IC50
1,"Cc1ncc(COc2ccc3oc(C)c(C(=O)NC(CO)c4nc5ccccc5[nH]4)c3c2)s1 (single isomer, unassigned) [cpd 401-En 2]",1 to 20 µM
2,"Cc1oc2ccc(OCc3cccnc3C(F)(F)F)cc2c1C(=O)NC(C)CO (single isomer, unassigned) [cpd 489-En 2]",< 1 µM
3,"Cc1ncc(COc2ccc3oc(C)c(C(=O)NC(C)CO)c3c2)s1 (single isomer, unassigned) [cpd 490-En 1]",< 1 µM
4,"Cc1ncsc1COc1ccc2oc(C)c(C(=O)NC(C)CO)c2c1 (single isomer, unassigned) [cpd 491-En 1]",< 1 µM

# Same assay, conditions: PS (50 μM) stimulated, cpds. 500-599
row,Structure (SMILES),IC50
1,"Cc1oc2ccc(OCc3cccnc3C(F)(F)F)cc2c1C(=O)NC1(CO)CCCOC1 (single isomer, unassigned) [cpd 531-En 1]",< 1 µM
2,"Cc1ncsc1COc1ccc2oc(C)c(C(=O)NC3(CO)CCCOC3)c2c1 (single isomer, unassigned) [cpd 532-En 1]",< 1 µM
3,"Cc1ncc(COc2ccc3oc(C)c(C(=O)NC4(CO)CCOC4)c3c2)s1 (single isomer, unassigned) [cpd 533-En 1]",< 1 µM
4,"Cc1oc2ccc(OCc3ccccn3)cc2c1C(=O)NC1(CO)CCOC1 (single isomer, unassigned) [cpd 534-En 1]",< 1 µM
5,"Cc1oc2ccc(OCc3cccnc3O)cc2c1C(=O)NC1(CO)CCOC1 (single isomer, unassigned) [cpd 535-En 1]",< 1 µM
6,"COc1ncccc1COc1ccc2oc(C)c(C(=O)NC3(CO)CCOC3)c2c1 (single isomer, unassigned) [cpd 536-En 1]",< 1 µM
7,"Cc1oc2ccc(OCc3cccnc3C(F)(F)F)c(C)c2c1C(=O)NC1CCNCC1(F)F (single isomer, unassigned) [cpd 538-En 1]",1 to 20 µM

# Same assay, conditions: PS (50 μM) stimulated, cpds. 667-751
row,Structure (SMILES),IC50
1,"Cc1oc2ccc(OCc3c[nH]nc3C(F)(F)F)cc2c1C(=O)NC1(CO)CCNC1=O (single isomer, unassigned) [730-En 1, N-(3-(Hydroxymethyl)-2-oxopyrrolidin-3-yl)-2-methyl-5-((3-(trifluoromethyl)-1H-pyrazol-4-yl)methoxy)benzofuran-3-carboxamide]",< 1 µM
